Data as given in the supplement of paper PMC10307832.

Key:
Experiment in all cases: relative viability (nuclei count vs DMSO), 5 days (fraction); higher = more cells survive
QS11 + Luminespib = compound: C1CC2=C(C1)C=C(C=C2)OC3=NC(=C4C(=N3)N(C=N4)CC5=CC=C(C=C5)C6=CC=CC=C6)N[C@@H](CC7=CC=CC=C7)CO [QS11] + CCNC(=O)c1noc(-c2cc(C(C)C)c(O)cc2O)c1-c1ccc(CN2CCOCC2)cc1 [Luminespib] (partner 0.01 µM)
Method in brief: (§1)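 Nuclei were stained with Hoechst during a one-step fixation (final 0.05% Triton X-100, 1% formaldehyde, 1 ug/ml Hoechst) carried out 5 days after dosing, then counted on 4× images. The cells, lung cancer lines in 1536-well plates, had been dosed by pin tool the day after seeding with one drug alone or a fixed anchor-drug dose plus five library-drug doses (not always all listed) in √10 steps. Relative viability is the nuclei count in treated wells divided by that in vehicle wells, and each value is the median of duplicate plates.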

QS11 + Lapatinib = compound: C1CC2=C(C1)C=C(C=C2)OC3=NC(=C4C(=N3)N(C=N4)CC5=CC=C(C=C5)C6=CC=CC=C6)N[C@@H](CC7=CC=CC=C7)CO [QS11] + CS(=O)(=O)CCNCc1ccc(-c2ccc3ncnc(Nc4ccc(OCc5cccc(F)c5)c(Cl)c4)c3c2)o1 [Lapatinib] (partner 2 µM)
Method in brief: as §1

QS11 + AZD7762 = compound: C1CC2=C(C1)C=C(C=C2)OC3=NC(=C4C(=N3)N(C=N4)CC5=CC=C(C=C5)C6=CC=CC=C6)N[C@@H](CC7=CC=CC=C7)CO [QS11] + NC(=O)Nc1cc(-c2cccc(F)c2)sc1C(=O)N[C@H]1CCCNC1 [AZD7762] (partner 0.2 µM)
Method in brief: as §1

[1] = compound: C[As](C)SC[C@H](NC(=O)CC[C@H](N)C(=O)O)C(=O)NCC(=O)O [Darinaparsin] + CS(=O)(=O)N1CCN(Cc2cc3nc(-c4cccc5[nH]ncc45)nc(N4CCOCC4)c3s2)CC1 [Pictilisib] (partner 1 µM)
Method in brief: as §1

In the case of NCI-H1915, the relative viability (QS11 + Luminespib; first compound 0.08 µM) is reported as 0.952, the relative viability (QS11 + Luminespib; first compound 0.253 µM) is reported as 0.959 and the relative viability (QS11 + Luminespib; first compound 2.53 µM) is reported as 0.766. For the same cell line, the relative viability (QS11 + Luminespib; first compound 8 µM) was 0.447, the relative viability (QS11 + Lapatinib; first compound 0.08 µM) was 1.04 and the relative viability (QS11 + Lapatinib; first compound 0.253 µM) was 1.02. It also gave a relative viability (QS11 + Lapatinib; first compound 2.53 µM) of 1.02, a relative viability (QS11 + Lapatinib; first compound 8 µM) of 0.802 and a relative viability (QS11 + AZD7762; first compound 0.08 µM) of 0.693. For the same cell line, the relative viability (QS11 + AZD7762; first compound 0.253 µM) was 0.702, the relative viability (QS11 + AZD7762; first compound 2.53 µM) was 0.753 and the relative viability (QS11 + AZD7762; first compound 8 µM) was 0.634. It also gave a relative viability ([1]; first compound 0.08 µM) of 0.99, a relative viability ([1]; first compound 0.8 µM) of 0.902 and a relative viability ([1]; first compound 2.53 µM) of 0.955. It also gave a relative viability ([1]; first compound 8 µM) of 0.991.

In the case of NCI-H2009, the relative viability (QS11 + Luminespib; first compound 0.08 µM) is reported as 1.01, the relative viability (QS11 + Luminespib; first compound 0.253 µM) is reported as 1.15 and the relative viability (QS11 + Luminespib; first compound 0.8 µM) is reported as 0.823. For the same cell line, the relative viability (QS11 + Luminespib; first compound 2.53 µM) was 0.905, the relative viability (QS11 + Luminespib; first compound 8 µM) was 0.935 and the relative viability (QS11 + Lapatinib; first compound 0.08 µM) was 0.983. For the same cell line, the relative viability (QS11 + Lapatinib; first compound 0.253 µM) was 0.884, the relative viability (QS11 + Lapatinib; first compound 0.8 µM) was 0.634 and the relative viability (QS11 + Lapatinib; first compound 2.53 µM) was 0.855. It also gave a relative viability (QS11 + Lapatinib; first compound 8 µM) of 0.728, a relative viability ([1]; first compound 0.08 µM) of 0.94 and a relative viability ([1]; first compound 0.8 µM) of 0.759. It also gave a relative viability ([1]; first compound 2.53 µM) of 0.815 and a relative viability ([1]; first compound 8 µM) of 0.711.

COR-L 105 gave a relative viability (QS11 + Luminespib; first compound 0.08 µM) of 0.838, a relative viability (QS11 + Luminespib; first compound 0.253 µM) of 0.7 and a relative viability (QS11 + Luminespib; first compound 0.8 µM) of 0.649. It also gave a relative viability (QS11 + Luminespib; first compound 2.53 µM) of 0.776, a relative viability (QS11 + Luminespib; first compound 8 µM) of 0.664 and a relative viability (QS11 + Lapatinib; first compound 0.08 µM) of 0.38. It also gave a relative viability (QS11 + Lapatinib; first compound 0.253 µM) of 0.363, a relative viability (QS11 + Lapatinib; first compound 0.8 µM) of 0.343 and a relative viability (QS11 + Lapatinib; first compound 2.53 µM) of 0.412. For the same cell line, the relative viability (QS11 + Lapatinib; first compound 8 µM) was 0.396, the relative viability ([1]; first compound 0.08 µM) was 0.446 and the relative viability ([1]; first compound 0.8 µM) was 0.411. It also gave a relative viability ([1]; first compound 8 µM) of 0.429.

ABC-1 was tested, and the relative viability (QS11 + Luminespib; first compound 0.08 µM) was 0.656, the relative viability (QS11 + Luminespib; first compound 0.253 µM) was 0.861 and the relative viability (QS11 + Luminespib; first compound 2.53 µM) was 0.828. It also gave a relative viability (QS11 + Luminespib; first compound 8 µM) of 0.842, a relative viability (QS11 + Lapatinib; first compound 0.08 µM) of 1.18 and a relative viability (QS11 + Lapatinib; first compound 0.253 µM) of 1.44. For the same cell line, the relative viability (QS11 + Lapatinib; first compound 0.8 µM) was 1.16, the relative viability (QS11 + Lapatinib; first compound 2.53 µM) was 1.16 and the relative viability (QS11 + Lapatinib; first compound 8 µM) was 1.47. For the same cell line, the relative viability (QS11 + AZD7762; first compound 0.08 µM) was 0.74, the relative viability (QS11 + AZD7762; first compound 0.253 µM) was 0.776 and the relative viability (QS11 + AZD7762; first compound 0.8 µM) was 0.732. The relative viability (QS11 + AZD7762; first compound 2.53 µM) was 0.774, the relative viability (QS11 + AZD7762; first compound 8 µM) was 0.843 and the relative viability ([1]; first compound 0.08 µM) was 0.793. It also gave a relative viability ([1]; first compound 0.8 µM) of 0.648, a relative viability ([1]; first compound 2.53 µM) of 0.738 and a relative viability ([1]; first compound 8 µM) of 0.904.

NCI-H1793 gave a relative viability (QS11 + Luminespib; first compound 0.08 µM) of 0.137, a relative viability (QS11 + Luminespib; first compound 0.253 µM) of 0.177 and a relative viability (QS11 + Luminespib; first compound 0.8 µM) of 0.171. It also gave a relative viability (QS11 + Luminespib; first compound 2.53 µM) of 0.189, a relative viability (QS11 + Luminespib; first compound 8 µM) of 0.158 and a relative viability (QS11 + Lapatinib; first compound 0.08 µM) of 0.807. For the same cell line, the relative viability (QS11 + Lapatinib; first compound 0.253 µM) was 0.659, the relative viability (QS11 + Lapatinib; first compound 0.8 µM) was 0.802 and the relative viability (QS11 + Lapatinib; first compound 2.53 µM) was 0.925. It also gave a relative viability (QS11 + Lapatinib; first compound 8 µM) of 1.1, a relative viability (QS11 + AZD7762; first compound 0.08 µM) of 0.449 and a relative viability (QS11 + AZD7762; first compound 0.253 µM) of 0.519. It also gave a relative viability (QS11 + AZD7762; first compound 0.8 µM) of 0.514, a relative viability (QS11 + AZD7762; first compound 2.53 µM) of 0.407 and a relative viability (QS11 + AZD7762; first compound 8 µM) of 0.418. It also gave a relative viability ([1]; first compound 0.08 µM) of 0.25, a relative viability ([1]; first compound 0.8 µM) of 0.31 and a relative viability ([1]; first compound 2.53 µM) of 0.355. The relative viability ([1]; first compound 8 µM) was 0.299.

NCI-H1792 was tested, and the relative viability (QS11 + Luminespib; first compound 0.08 µM) was 0.432, the relative viability (QS11 + Luminespib; first compound 0.253 µM) was 0.417 and the relative viability (QS11 + Luminespib; first compound 0.8 µM) was 0.386. It also gave a relative viability (QS11 + Luminespib; first compound 2.53 µM) of 0.369, a relative viability (QS11 + Luminespib; first compound 8 µM) of 0.409 and a relative viability (QS11 + Lapatinib; first compound 0.253 µM) of 1.03. It also gave a relative viability (QS11 + Lapatinib; first compound 0.8 µM) of 0.633, a relative viability (QS11 + Lapatinib; first compound 2.53 µM) of 0.937 and a relative viability (QS11 + Lapatinib; first compound 8 µM) of 0.711. For the same cell line, the relative viability (QS11 + AZD7762; first compound 0.253 µM) was 0.733, the relative viability (QS11 + AZD7762; first compound 0.8 µM) was 0.595 and the relative viability (QS11 + AZD7762; first compound 2.53 µM) was 0.385. For the same cell line, the relative viability (QS11 + AZD7762; first compound 8 µM) was 0.34, the relative viability ([1]; first compound 0.08 µM) was 0.169 and the relative viability ([1]; first compound 0.8 µM) was 0.235. It also gave a relative viability ([1]; first compound 2.53 µM) of 0.243 and a relative viability ([1]; first compound 8 µM) of 0.356.

Cell Line ChaGo-K-1 has a relative viability (QS11 + Luminespib; first compound 0.08 µM) of 0.506, a relative viability (QS11 + Luminespib; first compound 0.253 µM) of 0.609 and a relative viability (QS11 + Luminespib; first compound 0.8 µM) of 0.679. It also gave a relative viability (QS11 + Luminespib; first compound 2.53 µM) of 0.664, a relative viability (QS11 + Luminespib; first compound 8 µM) of 0.655 and a relative viability (QS11 + AZD7762; first compound 0.253 µM) of 0.862. For the same cell line, the relative viability (QS11 + AZD7762; first compound 0.8 µM) was 1, the relative viability (QS11 + AZD7762; first compound 2.53 µM) was 0.941 and the relative viability (QS11 + AZD7762; first compound 8 µM) was 1. For the same cell line, the relative viability ([1]; first compound 0.08 µM) was 0.947, the relative viability ([1]; first compound 0.8 µM) was 0.693 and the relative viability ([1]; first compound 2.53 µM) was 0.732. For the same cell line, the relative viability ([1]; first compound 8 µM) was 0.662.

For NCI-H2342, the relative viability (QS11 + Luminespib; first compound 0.08 µM) was 0.787, the relative viability (QS11 + Luminespib; first compound 0.253 µM) was 0.754 and the relative viability (QS11 + Luminespib; first compound 0.8 µM) was 0.721. The relative viability (QS11 + Luminespib; first compound 2.53 µM) was 0.697, the relative viability (QS11 + Luminespib; first compound 8 µM) was 0.746 and the relative viability (QS11 + AZD7762; first compound 0.08 µM) was 0.489. It also gave a relative viability (QS11 + AZD7762; first compound 0.253 µM) of 0.47, a relative viability (QS11 + AZD7762; first compound 0.8 µM) of 0.502 and a relative viability (QS11 + AZD7762; first compound 2.53 µM) of 0.488. For the same cell line, the relative viability (QS11 + AZD7762; first compound 8 µM) was 0.456.

NCI-H1648 was tested, and the relative viability (QS11 + AZD7762; first compound 0.08 µM) was 0.727, the relative viability (QS11 + AZD7762; first compound 0.253 µM) was 0.741 and the relative viability (QS11 + AZD7762; first compound 0.8 µM) was 0.747. The relative viability (QS11 + AZD7762; first compound 2.53 µM) was 0.865 and the relative viability (QS11 + AZD7762; first compound 8 µM) was 0.544.
